Reference: patent publication US20030060493A1, “Repinotan kit” (priority 2000, published 2003)

System: stroke or craniocerebral trauma
Assay: Clinical studies in healthy subjects and patients after stroke or craniocerebral trauma
Type: in vivo, human

O=C1c2ccccc2S(=O)(=O)N1CCCCNCC1CCc2ccccc2O1 (stereo in doubt) [repinotan, 2-[4-({[(2R)-chroman-2-yl]methyl}amino)butyl]-1,2-benzisothiazol-3(2H)-one 1,1-dioxide]
neurological and functional deficits (after 3 and 6 months respectively depending on indication): possible to improve the neurological and functional deficits
tolerability (healthy subjects and patients after a stroke or craniocerebral trauma): good tolerability
result of treatment versus placebo (patients who reached blood plasma concentrations of about 5-20 μg/l): markedly better
